# Test results: patent US20230116039A1, “DISINFECTION SOLUTION WITH TWO-PART FORMULATION” (ASP GLOBAL MANUFACTURING GMBH, priority 2020, published 2023)
# Tests used:
# [1] = Stability of ready-to-use PAA solution, pH adjusted with disodium phosphate, with or without chelant, heated at 56° C. for one hour; type: physicochemical; details: initial PAA 0.35%, water hardness 200 ppm, pH 5 with disodium phosphate
# Excerpt: (§1) In these studies, peracetic acid (PAA) was combined with hard water having a water hardness of 200 parts per million (“ppm”) such that the resulting solution included a 0.35% concentration of PAA. The pH of the solution was adjusted to 5 using a pH modifier. In a first batch of the solution, the pH modifier used was ethanolamine. In a second batch of the solution, the pH modifier used was disodium phosphate. Test specimens from these two batches were created by individually adding chelants thereto. The chelants used in these studies are those used for removing ions (e.g. Calcium and Magnesium) from hard water, and included tetrasodium EDTA, TRILON® M (methylglycinediacetic acid trisodium salt (MGDA-Na3)), TRILON® C (diethylenetriaminepentaacetic acid pentasodium salt (DTPA-Na5)), sodium citrate, and DISSOLVINE® GL (glutamic acid diacetic acid tetrasodium salt (GLDA-Na4)). Test specimens from these two batches were also created that lacked any such chelants. In some instances, test specimens were created for different concentrations of certain of these chelants. Table 1 reflects test specimens made from the first batch of the solution. Table 2 reflects test specimens made from the second batch of the solution. The tables also reflect the concentration of each chelant in each specimen as a percentage. Each specimen was heated at 56° C. for one hour. At the end of the hour, the PAA concentration was determined. The final concentration of PAA is provided in Table 1 and Table 2 alongside the change in the PAA concentration as determined at the end of the hour (“Δ PAA %”).
# [2] = Stability of ready-to-use PAA solution, pH adjusted with ethanolamine, with or without chelant, heated at 56° C. for one hour; type: physicochemical; details: initial PAA 0.35%, water hardness 200 ppm, pH 5 with ethanolamine
# Excerpt: as §1
Final PAA Concentration (%) ([1]; chelant concentration 0.2%),Δ PAA % ([1]; chelant concentration 0.2%) [%],Compound,Final PAA Concentration (%) ([1]; chelant concentration 0.6%),Δ PAA % ([1]; chelant concentration 0.6%) [%],Final PAA Concentration (%) ([2]; chelant concentration 0.6%),Δ PAA % ([2]; chelant concentration 0.6%) [%],Final PAA Concentration (%) ([1]; chelant concentration 0.1%),Δ PAA % ([1]; chelant concentration 0.1%) [%],Final PAA Concentration (%) ([1]; chelant concentration 0.4%),Δ PAA % ([1]; chelant concentration 0.4%) [%],Final PAA Concentration (%) ([2]; chelant concentration 0.1%),Δ PAA % ([2]; chelant concentration 0.1%) [%],Final PAA Concentration (%) ([2]; chelant concentration 0.4%),Δ PAA % ([2]; chelant concentration 0.4%) [%],Final PAA Concentration (%) ([2]; chelant concentration 0.2%),Δ PAA % ([2]; chelant concentration 0.2%) [%]
0.3,−14,"CC(C(=O)[O-])N(CC(=O)[O-])CC(=O)[O-].[Na+].[Na+].[Na+] (stereo not drawn) [Trilon M (liquid), methylglycinediacetic acid trisodium salt]",0.26,−26,0.19,−46,,,,,,,,,,
,,"O=C([O-])CN(CCN(CC(=O)[O-])CC(=O)[O-])CC(=O)[O-].[Na+].[Na+].[Na+].[Na+] [Na4EDTA, tetrasodium EDTA, reference compound]",,,,,0.28,−20,0.18,−49,0.21,−40,0.14,−60,,
,,"O=C([O-])CC(O)(CC(=O)[O-])C(=O)[O-].[Na+].[Na+].[Na+] [sodium citrate, reference compound]",,,,,,,0.26,−26,,,0.23,−34,,
0.26,−26,"O=C([O-])CN(CCN(CC(=O)[O-])CC(=O)[O-])CCN(CC(=O)[O-])CC(=O)[O-].[Na+].[Na+].[Na+].[Na+].[Na+] [Trilon C (liquid), diethylenetriaminepentaacetic acid pentasodium salt]",,,,,,,,,,,,,0.22,−37

Compound,Final PAA Concentration (%) ([1]; chelant concentration 0.2%),Δ PAA % ([1]; chelant concentration 0.2%) [%],Final PAA Concentration (%) ([1]; chelant concentration 0.6%),Δ PAA % ([1]; chelant concentration 0.6%) [%],Final PAA Concentration (%) ([2]; chelant concentration 0.6%),Δ PAA % ([2]; chelant concentration 0.6%) [%],Final PAA Concentration (%) ([1]; chelant concentration 0.1%),Δ PAA % ([1]; chelant concentration 0.1%) [%],Final PAA Concentration (%) ([1]; chelant concentration 0.4%),Δ PAA % ([1]; chelant concentration 0.4%) [%],Final PAA Concentration (%) ([2]; chelant concentration 0.1%),Δ PAA % ([2]; chelant concentration 0.1%) [%],Final PAA Concentration (%) ([2]; chelant concentration 0.4%),Δ PAA % ([2]; chelant concentration 0.4%) [%],Final PAA Concentration (%) ([2]; chelant concentration 0.2%),Δ PAA % ([2]; chelant concentration 0.2%) [%]
"O=C([O-])CC[C@@H](C(=O)[O-])N(CC(=O)[O-])CC(=O)[O-].[Na+].[Na+].[Na+].[Na+] [Dissolvine (liquid), glutamic acid diacetic acid tetrasodium salt]",0.29,−17,0.25,−29,0.17,−51,,,,,,,,,0.23,−34
